Measured values reported in article PMC3759991 (Clinical cancer research : an official journal of the …, 2012).
Where no end group is shown, it is not given here.

Experiments:
HLA-A*0301 = HLA-A*0301 (Homo sapiens, UniProt P04439); experiment: competitive MHC allele binding assay, A*0301
HLA-A*3301 = HLA-A*3301 (Homo sapiens, UniProt P04439, A270S/D185E/E176V/E277Q/E87N/F33T/G231S/H175R/I121M/I218V/I322F/K168Q/K210R/L300P/L318F/M331R/P217A/Q86R/Q94H/R138Q/T323A/T345S/T97I/V358M/Y195H); experiment: competitive MHC allele binding assay, A*3301
HLA-A*1101 = HLA-A*1101 (Homo sapiens, UniProt P04439, A114D/D185E/E176A/F33Y/L180Q/S129P/T187R); experiment: competitive MHC allele binding assay, A*1101
HLA-A*3001 = HLA-A*3001 (Homo sapiens, UniProt P04439, D140H/D185E/E176W/F33S/G80R/H175R/K168Q/R138E/R41S); experiment: competitive MHC allele binding assay, A*3001
HLA-A*6801 = HLA-A*6801 (Homo sapiens, UniProt P04439, A269V/D185E/E176V/E277Q/E87N/F33Y/G231S/I121M/I166T/I218V/L180W/L300P/L318F/N151K/P208A/P217A/Q86R/R169H/T345S); experiment: competitive MHC allele binding assay, A*6801
HLA-A*3101 = HLA-A*3101 (Homo sapiens, UniProt P04439, A270S/D185E/E176V/E277Q/F33T/G231S/G80R/H175R/I121M/I218V/I322F/K168Q/L300P/L318F/M331R/P217A/Q94H/R138Q/T323A/T345S/T97I/V358M); experiment: competitive MHC allele binding assay, A*3101

Sequence | IC50 (HLA-A*0301) | IC50 (HLA-A*3301) | IC50 (HLA-A*1101) | IC50 (HLA-A*3001) | IC50 (HLA-A*6801) | IC50 (HLA-A*3101)
KLGGGQYGK [E255K-A] | 0.208 µM | > 70 µM | 1.07 µM | 27.8 µM | 57.1 µM | 31.8 µM
EVYEGVWKK [E225K-B WT] | 1.07 µM | 0.06 µM | 0.063 µM | > 70 µM | 0.01 µM | > 70 µM
